The record followed here is ChEMBL document CHEMBL5233262, “Anti-inflammatory activity of naturally occuring diarylheptanoids - A review” (Bioorg Med Chem, 2021).

As usually defined, the IC50 is the concentration that inhibits the measured activity by half.

Converted amounts (≈) assume the structure as drawn. Residues, ends and D or L forms follow the SMILES beside them. *: point of attachment. Cbz = O=C(OCc1ccccc1)*

The test system of one assay is Rattus norvegicus. Description: Antiinflammatory activity in rat model of carrageenan-induced paw edema assessed as reduction in paw thickness at 10 mg/kg,ip and measured after 4 hrs. The assay is classed as functional. The arrangement: scale not given: the % may be the effect or the level left. A general note: In the carrageenan paw model, swelling and tenderness develop within hours.

Assay [1] in a line: Antioxidant activity assessed as […] radical scavenging activity at 50 uM. The assay is classed as functional.
The next assay deals with J774.1. The experiment in a line: Antiinflammatory activity in mouse J774.1 cells assessed as inhibition of LPS-induced NO production incubated for 48 hrs by Griess reagent based analysis. Format: functional, cell-based. (Nitrite, measured by Griess reagent, commonly stands in for NO production.)
The subject of assay [2] is RAW264.7. The experiment in a line: Antiinflammatory activity in mouse RAW264.7 cells assessed as inhibition of LPS-induced NO production preincubated for 1 hrs followed by LPS stimulation and measured after 24 hrs by Griess reagent based spectrophotometrical method. The assay is classed as functional, cell-based.
Assay [3] can be described thus: Antioxidant activity assessed as ABTS radical scavenging activity measured after 6 mins. The assay is classed as functional.
The next assay has as its system Mus musculus. Description: Antiinflammatory activity in ICR mouse model of TPA-induced ear edema assessed as inhibition of ear inflammation at 1 mg,TOP for 30 mins followed by TPA addition and measured after 6 hrs. Format: functional. The following applies: time 390 min, 6.5 h.
Assay [4] concerns RAW264.7. The experiment in a line: Antiinflammatory activity in mouse RAW264.7 cells assessed as inhibition of LPS-induced NO production preincubated for 0.5 hrs followed by LPS stimulation and measured after 24 hrs by Griess reagent based analysis. Format: functional, cell-based.
In assay [5] the test system is RAW264.7. Description: Antiinflammatory activity in mouse RAW264.7 cells assessed as inhibition of LPS-induced NO production incubated for 18 hrs by Griess method. Format: functional, cell-based. The following applies: RAW264.7, 18 h.
Assay [6] in a line: Antiinflammatory activity in mouse N11 cells assessed as inhibition of LPS-induced NO production preincubated for 1 hrs followed by LPS stimulation and measured after 24 hrs by Griess method. Format: functional, cell-based.
Assay [7] is described as follows: Antiinflammatory activity in mouse N11 cells assessed as inhibition of LPS-induced TNFalpha level preincubated for 1 hrs followed by LPS stimulation and measured after 24 hrs by ELISA. Format: functional, cell-based.
Assay [8] concerns RAW264.7. Description: Antiinflammatory activity in mouse RAW264.7 cells assessed as inhibition of LPS-induced TNFalpha level preincubated for 1 hrs followed by LPS stimulation and measured after 24 hrs by ELISA. Format: functional, cell-based. A general note: In an ELISA, binding on a coated surface is turned into a signal by an enzyme label.
Assay [9] concerns RAW264.7. The experiment in a line: Antiinflammatory activity in mouse RAW264.7 cells assessed as inhibition of LPS-induced NO production preincubated for 1 hrs followed by LPS stimulation and measured after 24 hrs by Griess method. The assay is classed as functional, cell-based.
The subject of assay [10] is RAW264.7. Description: Antiinflammatory activity against mouse RAW264.7 cells assessed as inhibition of IFN-gamma and LPS-induced COX2 production preincubated for 2 hrs followed by IFN-gamma and LPS stimulation and measured after 16 hrs by spectrophotometric analysis. Format: functional, cell-based.
The test system of assay [11] is RAW264.7. The experiment in a line: Antiinflammatory activity in mouse RAW264.7 cells assessed as inhibition of IFN-gamma and LPS-induced NO production incubated for 24 hrs by Griess assay. The assay is classed as functional, cell-based. The following applies: RAW264.7, 24 h.
Assay [12] has as its system RAW264.7. The experiment in a line: Antiinflammatory activity in mouse RAW264.7 cells assessed as inhibition of LPS-induced NO production for 24 hrs by Griess assay. The assay is classed as functional, cell-based. The following applies: RAW264.7, 24 h.
Assay [13] is described as follows: Antioxidant activity assessed as DPPH radical scavenging activity incubated for 30 mins by spectrophotometric analysis. Format: functional.

As to `COc1c2cc(c(O)c1OC)CCCC[C@H](O)CCc1ccc(O)c-2c1`, the figures for the Activity (in the assay with Rattus norvegicus; in assay [1]) were 51.5% and 41%, respectively.

As to `COc1c2cc(c(O[C@@H]3O[C@H](CO)[C@@H](O)[C@H](O)[C@H]3O)c1OC)CCCC[C@H](O)CCc1ccc(O)c-2c1`, the Activity in the assay on Rattus norvegicus is 47.1%; in assay [1] it was 41%.

With `COc1cc(O)c([C@@H](/C=C/C[C@@H](O)CCc2ccc(O)cc2)c2ccc(O)cc2)c(O)c1C(=O)[C@@H]1[C@H](/C=C/c2ccc(O)cc2)C[C@H](CCc2ccc(O)cc2)O[C@H]1c1ccc(O)cc1`, the IC50 with J774.1 (Mus musculus, J774.1, 48 h) was determined as 39 µM.

`COc1c2cc(c(O)c1OC)CCCCC(=O)CCc1ccc(O)c-2c1` [MYRICANONE]: the results for the IC50 (with RAW264.7 [2]; in assay [3]) were 1 µM and 19.6 µM, respectively. The Activity with Rattus norvegicus amounted to 49.6%; in assay [1], 41%.

Take `COc1cc(O)c([C@H](/C=C/C[C@H](CCc2ccc(O)cc2)OO)c2ccc(O)cc2)c(O)c1C(=O)/C=C/c1ccc(O)cc1`: in the assay on J774.1 (Mus musculus, J774.1, 48 h), the IC50 was found to be 49 µM.

Turning to `COc1cc(/C=C/C(=O)CC(=O)CCc2ccc(O)c(OC)c2)ccc1O`, the IC50 in the assay with J774.1 (Mus musculus, J774.1, 48 h) came to 181 µM.

`Oc1ccc2cc1Oc1ccc(cc1)CC[C@H](O)CCCC2` [ACEROGENIN A]: the ID50 with Mus musculus is 0.32 mg.

For the compound `O=C(CCc1ccc(O)c(O)c1)C[C@H](CCc1ccc(O)c(O)c1)O[C@H]1OC[C@H](O)[C@@H](O)[C@@H]1OC(=O)/C=C/c1ccc(O)cc1`, the IC50 in the assay on RAW264.7 [4] worked out at 22 µM.

Regarding `Oc1ccc(CC[C@@H](O)CCCCc2ccc(O)c(O)c2)cc1`, the IC50 in the assay on RAW264.7 [5] worked out at 13.8 µM.

Turning to `CC(C)C[C@@H](C=O)NC(=O)[C@H](CC(C)C)NC(=O)[C@H](CC(C)C)NC(=O)OCc1ccccc1` [MG-132] (Cbz-Leu-Leu-Leu-aldehyde), the IC50 in the assay on RAW264.7 [5] was 0.1 µM.

With `COc1cc(O)c([C@H](/C=C/C[C@@H](O)CCc2ccc(O)cc2)c2ccc(O)cc2)c2oc(-c3ccc(O)cc3)cc(=O)c12` (stereo in doubt; 111), in the assay on J774.1 (j774.1), the IC50 is 95 µM.

For `Oc1ccc(CC[C@H](O)CCCCc2ccc(O)c(O)c2)cc1`, in the assay on RAW264.7 [4], the IC50 stood at 22.1 µM.

For `O=c1cc(-c2ccc(O)cc2)oc2cc(O)cc(O)c12` [APIGENIN], the IC50 in [6] was 15 µM; in assay [7] it was 20 µM.

Take `COc1ccc(C/C=C/CCCCc2cccc(O)c2)cc1`: the IC50 was 44.2 µM in assay [6], 9.9 µM in the assay with RAW264.7 [8], 47 µM with RAW264.7 [9] and 29.6 µM in [7].

In the case of `O=C(CCc1ccc(O)c(O)c1)C[C@H](CCc1ccc(O)c(O)c1)O[C@H]1OC[C@H](O)[C@@H](O)[C@@H]1OC(=O)c1ccccc1`, the IC50 with RAW264.7 [4] came out at 15.4 µM.

As for `CCCOC(=O)c1cc(O)c(O)c(O)c1`, in [1], the Activity stood at 97%.

Take `OC[C@@]1(O)CO[C@@H](OC[C@H]2O[C@@H](O[C@H](CCCCc3ccc(O)c(O)c3)CCc3ccc(O)c(O)c3)[C@H](O)[C@@H](O)[C@@H]2O)[C@@H]1O`: the IC50 stood at 34.2 µg/mL (≈ 54.6 µM) with RAW264.7 [10] and 49.4 µg/mL (≈ 78.8 µM) with RAW264.7 [11].

`Oc1ccc(CC[C@H](O)C[C@H](O)CCc2ccc(O)c(O)c2)cc1`: the IC50 in the assay with RAW264.7 [12] is 27 µM.

With `COc1ccc(C/C=C/CCCCc2ccc(O)c(O)c2)cc1`, the IC50 in [6] came to 41.3 µM; in the assay with RAW264.7 [8], 15.9 µM; in the assay on RAW264.7 [9], 25.1 µM; in assay [7], 23.3 µM.

As for `COc1ccc(C/C=C/CCCCc2ccc(O)cc2)cc1`, the IC50 in assay [6] was found to be 63.2 µM; in the assay with RAW264.7 [8], 29.6 µM; with RAW264.7 [9], 47 µM; in assay [7], 29.6 µM.

With `COc1c2cc(c(OC)c1OC)-c1cc(ccc1O)CC(O)C(=O)CCCC2` (stereo not given), the IC50 in the assay with RAW264.7 [2] is 46.9 µM; in [13] it was above 250 µM; in assay [3] it was 73.7 µM.

For the compound `N=C(NCCC[C@H](N)C(=O)O)N[N+](=O)[O-]` [NITROARGININE], the IC50 in the assay with RAW264.7 [2] came to 39.5 µM.

With `COc1ccc(C/C=C/CCCCc2ccc(OC)c(OC)c2)cc1`, the IC50 in assay [6] was determined as 12.7 µM; in the assay with RAW264.7 [8], 5.3 µM; with RAW264.7 [9], 28.3 µM; in assay [7], 4.3 µM.

Regarding `CCC(C)C(=O)O[C@@H]1[C@@H](O[C@@H](CCc2ccc(O)c(O)c2)CC(=O)CCc2ccc(O)c(O)c2)OC[C@H](O)[C@H]1O` (stereo not given in full), the IC50 in the assay on RAW264.7 [4] was found to be 30 µM.
